For 13 molecules, GI50 and TGI results are on record in PubChem BioAssay (NCI).

Holding throughout (assay): NCI-60 cell line screen, 48 h
Assay [1] concerns BT-549 breast.
The subject of assay [2] is MDA-MB-231 breast.
Assay [3] relates to SNB-19 CNS.
The test system of assay [4] is OVCAR-8 ovarian.
For assay [5], the system named is M14 melanoma.
For assay [6], the system named is NCI-H226 lung.
The test system of assay [7] is RPMI-8226 leukemia.
In assay [8] the test system is COLO 205 colon.
The test system of assay [9] is A498 renal.
The subject of assay [10] is OVCAR-4 ovarian.

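48-hour exposure; five concentrations; linearly interpolated endpoints. GI50 is the concentration that inhibits growth by half. TGI: concentration producing complete growth inhibition.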

Consider `CN(C)CCCn1c2nc(=O)[nH]c(=O)c-2nc2cc(Cl)c(Cl)cc21`, for which the GI50 was 19.5 µM in assay [1]; 3.88 µM in assay [2]; 12.7 µM in assay [3]; 3.16 µM in [4]; 3.68 µM in assay [5]; 2.58 µM in assay [6]. Besides, the GI50 in assay [7] is 3.25 µM; in [8] it was 1.35 µM; in assay [9], 16.1 µM; in [10], 6.3 µM. In addition, the TGI in [1] turned out to be 34.7 µM; in assay [2], 14.9 µM; in assay [3] it was 26 µM; in [4], 10.6 µM; in assay [5] it was 13 µM; in [6], 9.28 µM. The TGI in assay [7] was 12.9 µM; in [8], 2.83 µM; in assay [9] it was 30.4 µM; in [10], 18.8 µM.
In the case of `COc1ccc2c(c1)C1(C(=O)N2)C(C#N)=C(c2ccccc2)Nc2c1c(-c1ccccc1)nn2-c1ccccc1` (stereo not given), the GI50 in [1] was 2.28 µM; in [2], 2.33 µM; in assay [3], 3.95 µM; in assay [4] it was 3.54 µM; in assay [5], 2.44 µM; in assay [6], 3.8 µM. The GI50 in assay [7] is 4.07 µM; in assay [8], 2.42 µM; in assay [9], 1.61 µM; in assay [10], 1.77 µM. Besides, the TGI in assay [1] amounted to 8.03 µM; in [2] it was 5.81 µM; in assay [3] it was 15 µM; in assay [4], 12.7 µM; in [5] it was 7.32 µM; in assay [6], 16.4 µM. The TGI is 17.8 µM in assay [7], 5.83 µM in [8], 4.35 µM in assay [9] and 3.5 µM in assay [10].
Consider `COc1ccc(/C=C/NC=O)cc1`, for which the TGI in [1], in assay [2], in assay [3], in [4], in [5] and in assay [6] was greater than 100 µM each time. For the same molecule, the TGI in assay [7], in assay [8], in [9] and in assay [10] was greater than 100 µM each time.
Turning to `NS(=O)(=O)c1ccc(NC(=O)c2cccc3cc4ccccc4nc23)cc1`, the TGI was greater than 100 µM in [1]; greater than 100 µM in [2]; greater than 100 µM in assay [3]; greater than 100 µM in assay [4]; greater than 100 µM in assay [5]; 98.7 µM in assay [6]. Besides, the TGI in [7], in assay [8], in [9] and in assay [10] was greater than 100 µM throughout.
Regarding `N#C/C(=C\c1ccc(Br)cc1)n1nnc2ccccc21`, the GI50 was 0.566 µM in assay [1]; 1.33 µM in [2]; 0.763 µM in [3]; 0.788 µM in assay [4]; 0.386 µM in [5]; 1.4 µM in [6]. The GI50 is 0.475 µM in assay [7], 0.591 µM in assay [8], 1.71 µM in assay [9] and 1.5 µM in [10]. For the same molecule, the TGI in assay [1] was determined as 4.85 µM; in assay [2], 6.17 µM; in assay [3], 2.41 µM; in assay [4], 13.6 µM; in assay [5], 3.44 µM; in assay [6], 6.75 µM. Further, the TGI in [7] is 3.31 µM; in assay [8], 3.22 µM; in [9] it was 4.37 µM; in assay [10] it was 5.25 µM.
On to `CNCCCNCCCN1C(=O)c2ccc3c4c(ccc(c24)C1=O)C(=O)N(CCCNCc1ccccc1OC)C3=O`, for which the GI50 in assay [1] is 5.03 µM; in assay [2], 2.9 µM; in assay [3], 1.68 µM; in assay [4] it was 0.797 µM; in [5], 1.32 µM; in [6], 1.42 µM. For the same molecule, the GI50 in assay [7] was 1.64 µM; in [8], 0.498 µM; in assay [9], 1.54 µM; in assay [10] it was 0.642 µM. For the same molecule, the TGI in [1] is 18.7 µM; in assay [2], 14 µM; in assay [3], 11.1 µM; in assay [4], 9.43 µM; in assay [5] it was 2.79 µM; in assay [6], 4.63 µM. Further, the TGI in [7] turned out to be 9.44 µM; in [8] it was 1.85 µM; in assay [9], 8.91 µM; in assay [10] it was 2.04 µM.
Take `CS(=O)(=O)OCCN(CCOS(C)(=O)=O)c1ccc(C=O)cc1`: the TGI was greater than 69.8 µM in assay [1]; 67.6 µM in assay [2]; 65.5 µM in [3]; 32.4 µM in [4]; 30.4 µM in [5]; 13.4 µM in assay [6]. Moreover, the TGI in assay [7] stood at 75.4 µM; in [8], 9.58 µM; in assay [9], 4.43 µM; in assay [10] it was 37.6 µM.
`C=C1C(=O)OC2CC(C)C3C=CC(=O)C3CC12` (stereo not given): the TGI in assay [1] came out at 9.94 µM; in [2] it was 3.74 µM; in assay [3], 37.7 µM; in [4], 14.4 µM; in assay [5], 3.46 µM; in assay [6] it was 8.21 µM. Moreover, the TGI in [7] stood at 7.03 µM; in assay [8] it was 3.34 µM; in assay [9] it was 24.3 µM; in assay [10] it was 9.68 µM.
As for `Cc1[nH]nc2c1N=C(c1ccccc1Cl)c1cc([N+](=O)[O-])ccc1N2`, the GI50 is greater than 15.1 µM in [1]; 4.42 µM in assay [2]; greater than 25 µM in assay [3]; greater than 25 µM in assay [4]; 0.687 µM in [5]; 4.08 µM in assay [6]. Further, the GI50 in assay [7] was 0.97 µM; in assay [8] it was 0.981 µM; in assay [9], 0.151 µM; in assay [10], 5.15 µM. In addition, the TGI in assay [1] was greater than 25 µM; in assay [2] it was greater than 25 µM; in assay [3] it was greater than 25 µM; in [4], greater than 25 µM; in assay [5], greater than 25 µM; in [6], greater than 19.6 µM. Also, the TGI was greater than 25 µM in assay [7], greater than 25 µM in [8], 1.62 µM in [9] and greater than 25 µM in assay [10].
Take `CC(C)Nc1ncc2cc(Oc3ccc(F)cc3F)c(=O)n(C)c2n1`: the GI50 was greater than 25 µM in assay [1]; 21 µM in assay [2]; greater than 25 µM in assay [3]; greater than 25 µM in assay [4]; greater than 25 µM in [5]; greater than 25 µM in assay [6]. The GI50 in assay [7] is greater than 25 µM; in assay [8], greater than 25 µM; in assay [9], 5.39 µM; in assay [10], greater than 25 µM. The TGI in [1], in assay [2], in [3], in assay [4], in [5] and in assay [6] was greater than 25 µM throughout. Also, the TGI in assay [7], in assay [8], in assay [9] and in assay [10] was greater than 25 µM throughout.
With `CCOC(=O)Nc1nc2c(C)cccc2s1`, the GI50 is 35.8 µM in assay [1]; 36.1 µM in assay [2]; greater than 100 µM in assay [3]; 52.8 µM in [4]; 53 µM in assay [5]; greater than 100 µM in assay [6]. Besides, the GI50 in assay [7] is 31.4 µM; in [8], greater than 100 µM; in assay [9], 11.7 µM; in assay [10] it was 43.2 µM. In addition, the TGI in [1], in assay [2], in assay [3], in assay [4], in assay [5] and in assay [6] was greater than 100 µM in each case. Further, the TGI in assay [7] was greater than 100 µM; in [8], greater than 100 µM; in assay [9], 54.8 µM; in assay [10], greater than 100 µM.
Regarding `C=CC1=C(C)C2=NC1=CC1=NC(=CC3=C(C)C4=C(O)C(C(=O)OC)C(=C5NC(=C2)C(C)C5CCC(=O)OC)C4=N3)C(CC)=C1C` (stereo not given), the TGI in assay [1], in assay [2], in assay [3], in [4], in assay [5] and in assay [6] was greater than 100 µM in each case. Further, the TGI in assay [7], in assay [8], in [9] and in assay [10] was greater than 100 µM throughout.
As for `COc1ccccc1/C=C/C(=O)/C=C/c1ccccc1OC`, the GI50 was 1.6 µM in [1]; 2.97 µM in assay [2]; 1.84 µM in [3]; 2.58 µM in [4]; 1.65 µM in assay [5]; 1.71 µM in assay [6]. Moreover, the GI50 in [7] was 2.25 µM; in assay [8], 1.94 µM; in [9], 1.54 µM; in assay [10] it was 1.51 µM. Moreover, the TGI in [1] was determined as 3.19 µM; in assay [2], 8.75 µM; in [3], 4.1 µM; in assay [4], 8.88 µM; in assay [5], 3.68 µM; in assay [6], 3.18 µM. Moreover, the TGI in assay [7] was found to be 8.43 µM; in assay [8], 3.5 µM; in [9], 3.06 µM; in assay [10], 16.6 µM.
